Measurements: patent US12421254B2, “KRAS modulators and uses thereof” (Quanta Therapeutics, Inc., priority 2023, dated 2025)
pIC50: −log10 of the molar value. Where two headings read alike, the source gives them in different places.

Key:
[1] = molecular target: GST-tagged KRAS-G12D (2-169) (Homo sapiens, UniProt P01116, G12D); experiment: Nucleotide exchange assay (NEA), SOS-mediated, HTRF, KRAS G12D; assay type: biochemical; conditions: IC50 extracted at 30 min, 20 nM SOScat; for IC50: Table 2, read-out: NEA-G12D (uM) IC50; for pIC50: Table 4, read-out: NEA G12D IC50
GST-tagged KRAS-G12D (2-169), sequence (P01116 2-169 isoform P01116-2 G12D): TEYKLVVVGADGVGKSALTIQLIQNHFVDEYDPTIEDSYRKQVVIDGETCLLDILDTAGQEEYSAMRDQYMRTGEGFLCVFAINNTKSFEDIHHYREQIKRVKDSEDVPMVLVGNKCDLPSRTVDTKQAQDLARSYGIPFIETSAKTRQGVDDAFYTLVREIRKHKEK
How it was run: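 SOS1cat-driven loading of fluorescent GTP-DY-647P1 (150 nM) onto GST-KRAS-G12D (2-169, 0.25 nM) read by time-resolved FRET; SOScat 20 nM, compound preincubated with KRAS 1 h at RT. Signal blanked to no-SOS reactions, normalized to DMSO; IC50 fitted from the 30-min read.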

[2] = system: phospho-ERK in GP2D (KRAS-G12D) cells; experiment: pERK In Cell Western (ICW) assay (Method B), GP2D; assay type: cell-based; conditions: GP2d, 3 h, Table 4
How it was run: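 In-cell western read-out: phospho-ERK (800 nm) normalized to DRAQ5 (700 nm) per well, expressed as percent of blank control, IC50 from 4-parameter variable-slope fit. Compounds were applied as ½-log 9-point series for 3 h at 37 °C to cells plated the previous day.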

[3] = molecular target: GST-tagged KRAS-G12V (2-169) (Homo sapiens, UniProt P01116, G12V); experiment: Nucleotide exchange assay (NEA), SOS-mediated, HTRF, KRAS G12V; assay type: biochemical; conditions: Table 4; IC50 extracted at 90 min; 80 nM SOS
GST-tagged KRAS-G12V (2-169), sequence (P01116 2-169 isoform P01116-2 G12V): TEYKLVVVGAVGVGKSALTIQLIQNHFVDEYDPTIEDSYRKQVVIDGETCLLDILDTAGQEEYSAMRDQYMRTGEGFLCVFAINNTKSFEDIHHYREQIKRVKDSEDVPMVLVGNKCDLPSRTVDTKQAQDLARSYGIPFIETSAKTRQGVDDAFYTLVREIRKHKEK
How it was run: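 Exchange onto fluorescent GTP-DY-647P1 (150 nM final) catalysed by 80 nM SOS1cat was followed by Tb-anti-GST HTRF at RT for up to 90 min, after 1 h compound pre-incubation with 0.25 nM GST-tagged KRAS-G12V (2-169), pH 7.3. DMSO = 0%, no-SOS blank = 100%; 4-parameter IC50 taken at 90 min.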

| SMILES | IC50 [1] [µM] | pIC50 [1] | pIC50 [2] | pIC50 [3] |
| --- | --- | --- | --- | --- |
| N#Cc1c(N)sc2c1C1(CC2)CN(c2nc(OCC3(CN4CCOCC4)CC3)nc(N3C[C@H]4CC[C@@H](C3)N4)n2)C1 [Compound 2, 2-amino-1′-[4-[[1-(morpholinomethyl)cyclopropyl]methoxy]-6-[(1R,5S)-3,8-diazabicyclo[3.2.1]octan-3-yl]-1,3,5-triazin-2-yl]spiro[5,6-dihydrocyclopenta[b]thiophene-4,3′-azetidine]-3-carbonitrile] | < 0.01 | > 8.00 | 7.00 to 8.00 | 6.00 to 7.00 |
| N#Cc1c(N)sc2c1C1(CC2)CN(c2nc(OCC34CCCN3CC(F)C4)nc(N3CC4CCC(C3)N4)n2)C1 [Compound 1, 2-amino-1′-[4-(3,8-diazabicyclo[3.2.1]octan-3-yl)-6-[[(2R,8S)-2-fluoro-1,2,3,5,6,7-hexahydropyrrolizin-8-yl]methoxy]-1,3,5-triazin-2-yl]spiro[5,6-dihydrocyclopenta[b]thiophene-4,3′-azetidine]-3-carbonitrile] | < 0.01 | > 8.00 | 7.00 to 8.00 | 7.00 to 8.00 |
| N#Cc1c(N)sc2c1C1(CC2)CN(c2nc(OC[C@@]34CCCN3C[C@H](F)C4)nc(N3CCCC(C#N)C3)n2)C1 (stereo partly drawn) [Compound 13, 2-amino-1′-[4-(3-cyano-1-piperidyl)-6-[[(2R,8S)-2-fluoro-1,2,3,5,6,7-hexahydropyrrolizin-8-yl]methoxy]-1,3,5-triazin-2-yl]spiro[5,6-dihydrocyclopenta[b]thiophene-4,3′-azetidine]-3-carbonitrile] | 0.01 to 0.1 | 7.00 to 8.00 | 6.00 to 7.00 | 7.00 to 8.00 |
| N#Cc1c(N)sc2c1C1(CCC2)CN(c2nc(OCC3(CN4CCOCC4)CC3)nc(N3C[C@H]4CC[C@@H](C3)N4)n2)C1 [Compound 3, 2-amino-1′-[4-[(1R,5S)-3,8-diazabicyclo[3.2.1]octan-3-yl]-6-[[1-(morpholinomethyl)cyclopropyl]methoxy]-1,3,5-triazin-2-yl]spiro[6,7-dihydro-5H-benzothiophene-4,3′-azetidine]-3-carbonitrile] | < 0.01 | > 8.00 | 7.00 to 8.00 | 6.00 to 7.00 |
| N#Cc1c(N)sc2c1C1(CC2)CN(c2nc(OCC3(CN4CCOCC4)CC3)nc(N3CCCC4(C3)NC(=O)NC4=O)n2)C1 (stereo not drawn) [Compound 7, 2-amino-1′-[4-(2,4-dioxo-1,3,9-triazaspiro[4.5]decan-9-yl)-6-[[1-(morpholinomethyl)cyclopropyl]methoxy]-1,3,5-triazin-2-yl]spiro[5,6-dihydrocyclopenta[b]thiophene-4,3′-azetidine]-3-carbonitrile] | < 0.01 | > 8.00 | 4.70 to 6.00 | > 8.00 |
| C[C@@]1(O)CCCN(c2nc(OC[C@@]34CCCN3C[C@H](F)C4)nc(N3CC4(CCc5sc(N)c(C#N)c54)C3)n2)C1 [Compound 10, 2-amino-1′-[4-[[(2R,8S)-2-fluoro-1,2,3,5,6,7-hexahydropyrrolizin-8-yl]methoxy]-6-[(3R)-3-hydroxy-3-methyl-1-piperidyl]-1,3,5-triazin-2-yl]spiro[5,6-dihydrocyclopenta[b]thiophene-4,3′-azetidine]-3-carbonitrile] | < 0.01 | > 8.00 | 7.00 to 8.00 | > 8.00 |
